Results taken from publication PMC9851200, “Multiparameter phenotypic screening for endogenous TFEB and TFE3 translocation identifies novel chemical series modulating lysosome function” (Autophagy, 2022).
Like-named read-outs stand apart in the source and are kept apart here.

Assays:
endogenous TFE3 = assay: TFE3 nuclear translocation, immunocytochemistry high-content imaging; type: cell-based
SH-SY5Y cells [1] = assay: Nuclear count from microscopy images (cellular growth and toxicity); note: reference of the scale not given here
SH-SY5Y cells [2] = assay: AK (adenylate kinase) release ToxiLight cytotoxicity assay; note: reference of the scale not given here
SH-SY5Y cells [3] = test system: SH-SY5Y cells; note: reference of the scale not given here
endogenous TFEB = assay: TFEB nuclear translocation, immunocytochemistry high-content imaging; type: cell-based
[4] = PKIS2 primary screening, DQ Red BSA intensity
[5] = PKIS2 primary screening, DQ Red BSA spot count

| SMILES | TFE3 % (endogenous TFE3; PKIS2 primary screening) | Nuclear Count (SH-SY5Y cells [1]; PKIS2 primary screening) | AK (SH-SY5Y cells [2]; PKIS2 primary screening) | DQ Intensity (SH-SY5Y cells [3]; PKIS2 primary screening) | DQ Spot (SH-SY5Y cells [3]; PKIS2 primary screening) | TFEB % (endogenous TFEB; PKIS2 primary screening) | DQ Intensity (SH-SY5Y cells [3]; [4]) | DQ Spot (SH-SY5Y cells [3]; [5]) | TFE3 % (endogenous TFE3; PKIS2 primary screen) | Nuclear Count (SH-SY5Y cells [1]; PKIS2 primary screen) | AK (SH-SY5Y cells [2]; PKIS2 primary screen) | DQ Intensity (SH-SY5Y cells [3]; PKIS2 primary screen, DQ Red BSA intensity) | DQ Spot (SH-SY5Y cells [3]; PKIS2 primary screen, DQ Red BSA spot count) | TFEB % (endogenous TFEB; PKIS2 primary screen) |
| --- | --- | --- | --- | --- | --- | --- | --- | --- | --- | --- | --- | --- | --- | --- |
| CN1CCN(CCCNc2nccc(-c3c(-c4ccc(F)cc4)nn4cc(C(N)=O)ccc34)n2)CC1 [UNC10225188A] | 19.47% | 94.19 | 105.02 | 87.92 | 111.81 | 6.08% |  |  |  |  |  |  |  |  |
| COc1ccc(Nc2nccc(N3CCC(NS(=O)(=O)c4ccc(NC(C)=O)cc4)C3)n2)cc1 (stereo not drawn) [GSK1379729] | 16.51% | 90.61 | 69.35 |  |  | 5.22% | 76.81 | 100.23 |  |  |  |  |  |  |
| C[C@@H]1CC[C@@H](C(=O)Nc2ccccc2)CN1c1cc(-c2ccc3c(N)n[nH]c3c2)nc(N)n1 [GSK2286062] | 8.18% | 138.15 | 87.26 |  |  | 4.27% | 74.11 | 77.23 |  |  |  |  |  |  |
| Cc1ccc(NC(=O)c2ccc(Cl)cc2)cc1-c1ccc(C(=O)Nc2ccncc2)cc1 [UNC10224985A] | 13.44% | 119.79 | 72.98 | 77.83 | 81.57 | 7.14% |  |  |  |  |  |  |  |  |
| COc1cc2c(Nc3cccc(NC(=O)c4ccccc4)c3)ncnc2cc1OCCCN1CCOCC1 [UNC10225271A] | 10.54% | 122.91 | 98.71 |  |  | 3.87% | 90.70 | 104.52 |  |  |  |  |  |  |
| COc1cc(Nc2nccc(N3CCC(NC(=O)c4cccc(C#N)c4)C3)n2)cc(OC)c1OC (stereo not drawn) [GSK1379751] | 13.31% | 92.57 | 124.29 |  |  | 5.62% | 80.41 | 103.20 |  |  |  |  |  |  |
| Nc1ncc(-c2cccnc2)c2scc(-c3ccc4c(c3)CCN4C(=O)Cc3ccccc3)c12 [UNC10225369A] | 19.63% | 102.35 | 64.72 |  |  | 3.58% | 84.54 | 86.78 |  |  |  |  |  |  |
| CN(C)CCOc1ccc(-c2cc(-c3c[nH]nc3-c3ccccn3)ccn2)cc1 [UNC10225226A] | 7.10% | 49.06 | 93.65 |  |  | 11.71% | 136.49 | 114.20 |  |  |  |  |  |  |
| CCn1c(-c2nonc2N)nc2cncc(CNC3CCNCC3)c21.Cl [UNC10225211A] | 12.65% | 84.35 | 88.65 | 95.76 | 101.16 | 4.17% |  |  |  |  |  |  |  |  |
| Fc1ccc(-c2nn3cccc(F)c3c2-c2ccncc2)cc1 [UNC10225116A] | 11.01% | 80.47 | 96.78 |  |  | 9.32% | 138.45 | 107.80 |  |  |  |  |  |  |
| Cn1cc(-c2ccc3c(c2)CCN3C(=O)Cc2cccc(C(F)(F)F)c2)c2c(N)ncnc21 [UNC10225165A] | 14.20% | 103.31 | 93.68 | 124.78 | 91.55 | 6.03% |  |  |  |  |  |  |  |  |
| COc1ccc(Nc2ncc(C#N)c(Nc3ccccc3C(N)=O)n2)cc1N1CCN(C)CC1 [GSK1558669] | 11.88% | 62.25 | 96.14 |  |  | 5.16% | 142.11 | 120.07 |  |  |  |  |  |  |
| CSc1nccc(-c2c(-c3ccc(F)cc3)ncn2CCCN2CCOCC2)n1.Cl [UNC10225426A] | 5.71% | 113.07 | 81.99 | 91.90 | 91.96 | 11.69% |  |  |  |  |  |  |  |  |
| Cc1ccc(NC(=O)Nc2ccc(Cl)cc2)cc1-c1ccc(C(=O)Nc2ccncc2)cc1 [UNC10225388A] | 28.63% | 82.28 | 83.48 | 98.78 | 97.95 | 7.90% |  |  |  |  |  |  |  |  |
| FC(F)(F)c1cc(Br)cc(Nc2nccc(-c3cnn4ncccc34)n2)c1 [UNC10225191A] | 14.10% | 72.92 | 83.14 | 110.85 | 116.61 | 6.52% |  |  |  |  |  |  |  |  |
| COc1cc2nccc(Nc3ccc(OCc4ccc(NC(C)=O)cc4)cc3)c2cc1OC.Cl [UNC10225233A] | 18.79% | 125.55 | 100.23 |  |  | 5.84% | 120.40 | 99.45 |  |  |  |  |  |  |
| Nc1ncnc2c1nc(-c1ccccc1)n2-c1ccccc1 [UNC10225340A] | 8.63% | 115.47 | 115.76 | 122.27 | 108.09 | 8.74% |  |  |  |  |  |  |  |  |

| SMILES | TFE3 % (endogenous TFE3; PKIS2 primary screening) | Nuclear Count (SH-SY5Y cells [1]; PKIS2 primary screening) | AK (SH-SY5Y cells [2]; PKIS2 primary screening) | DQ Intensity (SH-SY5Y cells [3]; PKIS2 primary screening) | DQ Spot (SH-SY5Y cells [3]; PKIS2 primary screening) | TFEB % (endogenous TFEB; PKIS2 primary screening) | DQ Intensity (SH-SY5Y cells [3]; [4]) | DQ Spot (SH-SY5Y cells [3]; [5]) | TFE3 % (endogenous TFE3; PKIS2 primary screen) | Nuclear Count (SH-SY5Y cells [1]; PKIS2 primary screen) | AK (SH-SY5Y cells [2]; PKIS2 primary screen) | DQ Intensity (SH-SY5Y cells [3]; PKIS2 primary screen, DQ Red BSA intensity) | DQ Spot (SH-SY5Y cells [3]; PKIS2 primary screen, DQ Red BSA spot count) | TFEB % (endogenous TFEB; PKIS2 primary screen) |
| --- | --- | --- | --- | --- | --- | --- | --- | --- | --- | --- | --- | --- | --- | --- |
| O=C(c1ccc(-c2cc(-c3c[nH]nc3-c3ccccn3)ccn2)cc1)N1CCCC1 [UNC10225230A] | 11.53% | 86.33 | 75.56 |  |  | 9.58% | 81.19 | 99.92 |  |  |  |  |  |  |
| Cc1c(Cn2c(C)nn3c(=O)cc(N4CCO[C@H](C)C4)nc23)cccc1C(F)(F)F [UNC10225403A] | 10.58% | 94.79 | 91.29 | 146.49 | 116.83 | 3.43% |  |  |  |  |  |  |  |  |
| CCn1c(-c2nonc2N)nc2c(-c3ccccc3)ncc(OCCCN)c21.O=C(O)C(F)(F)F.O=C(O)C(F)(F)F [UNC10225047A] | 79.68% | 137.54 | 103.12 | 51.60 | 50.36 | 27.76% |  |  |  |  |  |  |  |  |
| Cc1nccc(-c2c(-c3ccc(F)cc3)ncn2CCCN2CCOCC2)n1.Cl [UNC10225493A] | 13.96% | 97.00 | 100.35 | 90.01 | 96.19 | 4.71% |  |  |  |  |  |  |  |  |
| COc1cccc(NC(=O)NCCNc2ccnc(Nc3ccc(F)cc3)n2)c1 [GSK1379879] | 16.07% | 93.19 | 80.56 |  |  | 4.69% | 127.01 | 112.84 |  |  |  |  |  |  |
| COc1cc(Nc2nccc(N3CCC(NC(=O)Nc4cc(C)ccc4C)C3)n2)cc(OC)c1OC (stereo not drawn) [GSK1379762] | 14.40% | 111.04 | 74.55 |  |  | 7.03% | 110.39 | 96.86 |  |  |  |  |  |  |
| O=c1[nH]cc(-c2ccc(N3CCOCC3)cc2)c2sc(-c3cn[nH]c3)cc12 [UNC10225158A] |  |  |  |  |  |  |  |  | 10.30% | 78.86 | 90.80 | 68.86 | 89.34 | 7.60% |
| Cc1ccc(C)c(NC(=O)Nc2ccc(C)c(-c3ccc(C(=O)Nc4ccncc4)cc3)c2)c1 [UNC10225228A] | 10.54% | 105.64 | 74.48 | 84.26 | 79.30 | 7.17% |  |  |  |  |  |  |  |  |
| Nc1nc(-c2ccc3c(N)n[nH]c3c2)cc(N2CCC[C@@H](C(=O)Nc3ccccc3)C2)n1 [GSK2288359] | 14.08% | 88.88 | 96.03 |  |  | 6.39% | 83.69 | 103.68 |  |  |  |  |  |  |
| COc1ccc(Nc2nccc(-c3cccc(NC(=O)c4cc5cc(F)ccc5[nH]4)c3)n2)cc1 [GSK1229782] | 14.29% | 89.95 | 91.24 |  |  | 2.71% | 93.16 | 110.99 |  |  |  |  |  |  |
| Fc1ccc(-c2ncn(CCCN3CCOCC3)c2-c2ccccn2)cc1 [UNC10225382A] | 18.86% | 93.57 | 83.54 |  |  | 3.28% | 121.86 | 115.12 |  |  |  |  |  |  |
| CCn1c(-c2nonc2N)nc2c(C#CC(C)(C)O)ncc(OCCCCN)c21.O=C(O)C(F)(F)F.O=C(O)C(F)(F)F [UNC10225393A] | 10.89% | 121.84 | 69.12 | 115.98 | 109.86 | 2.26% |  |  |  |  |  |  |  |  |
| CN(c1ccc(NC(=O)Nc2cccc(Cl)c2)cc1)c1ccnc(N)n1 [GW830707] | 9.81% | 115.77 | 94.92 |  |  | 11.00% | 86.00 | 87.81 |  |  |  |  |  |  |
| COc1cc2ncnc(Nc3ccc(OCc4ccccc4Br)c(Cl)c3)c2cc1OC.Cl [UNC10225261A] | 8.49% | 123.73 | 120.37 |  |  | 4.00% | 96.30 | 117.72 |  |  |  |  |  |  |
| Cc1cccc(Nc2nc(N[C@H]3CCNC3)ncc2C(N)=O)c1.Cl [UNC10225356A] | 8.51% | 97.71 | 117.33 | 128.58 | 110.55 | 10.40% |  |  |  |  |  |  |  |  |
| COc1ccc(C)c(Nc2ccnc(Nc3ccc(-c4cnc[nH]4)cc3)n2)c1 [GW784041] | 11.03% | 105.20 | 81.91 |  |  | 16.17% | 109.83 | 101.33 |  |  |  |  |  |  |
| COC(=O)c1cccc(NC(=O)NC2CCN(c3ccnc(NCc4ccc(F)cc4)n3)CC2)c1 [GSK1379860] | 10.41% | 118.43 | 178.25 |  |  | 6.34% | 146.32 | 93.58 |  |  |  |  |  |  |
